These are literature values, as cited in patent US20260131008A1, “HYALURONIC ACID BASED DRUG DELIVERY SYSTEMS” (priority 2023, published 2026).

For the series the following is noted: in vivo.

On to hyaluronic acid [Uncrosslinked HA], for which the vitreal half-life result is “weeks” and the “vitreal half-life, shortest estimates” value is 48 h.
